# Measured values reported in patent US20180238860A1, “INDIVIDUAL METHOD PREDICTIVE OF THE DNA-BREAKING GENOTOXIC EFFECTS OF CHEMICAL OR BIOCHEMICAL AGENTS” (priority 2015, published 2018).
# Columns and labels:
# Assay type in all cases: cell-based, human
# 1BR3 (control cells) = test: pH2AX foci immunofluorescence 24 h after contacting, 1BR3 control fibroblasts; details: 1BR3, 24 hours after contacting (Table 3)
# Protocol: (§1) In one embodiment, on receipt, the tissue sample (typically the biopsy) is established in the form of an amplifiable cell line without a viral or chemical transformation agent according to an ancillary procedure well known to culture laboratories, as underlined by the publication of Elkind et al. “The radiobiology of cultured mammalian cell”, Gordon and Breach (1967). Once the number of cells is sufficient (typically after 1 to 3 weeks), the first experiments are carried out using the process according to the invention. A cell sample is prepared: The cells are inoculated on glass coverslips in Petri dishes. A portion of these coverslips are contaminated with metals or pesticides or any other DNA-breaking chemical or biochemical agent at different concentrations. A further portion is not contaminated; it represents the spontaneous state. During contamination, the cells remain in the culture incubator at 37° C.
# (§2) For the contaminated cells, characteristics are acquired corresponding to the state after an incubation time with the DNA-breaking chemical or biochemical agent. Said characteristics are represented by foci corresponding to the marker pH2AX. The cells on glass coverslips are then fixed, lysed and hybridized. The following procedure, known per se (Bodgi et al, “A single formula to describe radiation-induced protein relocalization: towards a mathematical definition of individual radiosensitivity”, J Theor Biol. 21 p 333:135-45.2013):
# (§3) the cells are fixed in 3% paraformaldehyde and 2% sucrose for 15 minutes at ambient temperature and permeabilized in 20 mM HEPES buffer solution (4-(2-hydroxyethyl)-1-piperazine ethane sulfonic acid) at pH 7.4, 50 mM NaCl, 3 mM MgCl2, 300 mM sucrose, 0.5% Triton X-100 (a non-ionic surfactant having the formula t-Oct-C6H4-(OCH2CH2)×OH where x=9-10, CAS No. 9002-93-1, supplied for example by Sigma Aldrich) for 3 minutes. The glass coverslips are then washed in phosphate buffer saline (known as the acronym PBS) before immunological staining. The incubation took place for 40 min at 37° C. in PBS supplemented with 2% bovine serum albumin (known as the acronym BSA or fraction V, supplied for example by Sigma Aldrich) and was followed by a wash with PBS. Anti-pH2AX primary antibodies are used at a concentration of 1:800. The incubations with anti-mouse FITC or anti-rabbit TRITC secondary antibodies (1:100, supplied by Sigma Aldrich) were performed at 37° C. in 2% BSA for 20 minutes. Glass coverslips were treated with Vectashield™ containing DAPI (4,6-Diamidino-2-phenylindole) to label the nucleus. Staining with DAPI also makes it possible, indirectly, to determine the number of cells in phase G1 (nuclei with homogenous DAPI staining), in phase S (nuclei with numerous pH2AX foci), in phase G2 (nuclei with heterogeneous DAPI staining) and metaphases (visible chromosomes).
# (§4) The results are acquired using these coverslips on an immunofluorescence microscope (Olympus model for example). The reading may be direct (typically by counting the foci on at least 50 cells in G0/G1 for each point) or using dedicated image analysis software, or on an automated microscope; preferably the software or automated microscope methods are calibrated with manual determinations.
# Commercial 1BR3 and 149 BR control fibroblasts were amplified according to the recommendations of the supplier (SIGMA-ALDRICH) until the number of cells sought was obtained. After obtaining a sufficient number of cells (generally after one to 3 weeks), the first experiments were conducted using the process according to the invention. The cells were inoculated on glass coverslips in Petri dishes.
# The acquisition of the results was carried out using these coverslips on an immunofluorescence microscope (Olympus model). The reading was performed directly by counting the foci obtained with the marker pH2AX on at least 50 cells in G0/G1 for each point or using dedicated image analysis software (imageJ). […]
# 1BR3 cells = test: Micronuclei per 100 cells 24 h after contacting, 1BR3
# Protocol: as §1, §3
# (§5) Counterstaining with DAPI (a DNA marker known to those skilled in the art) makes it possible to locate the nucleus to situate the cytoplasmic or nuclear location to quantify the micronuclei, which are complementary cell markers to the data on the foci.
# (§6) The tables hereinafter summarize the results of numerous experiments which were carried out as described in the “Detailed description” section above.
# (§7) In tables 3 and 4, “pH2AX” corresponds to the mean number of nuclear foci obtained with the marker pH2AX, 24 hours after contacting the cell sample with the chemical agent at the concentration C (NpH2AX(24 h, C)), and where “Micronuclei” corresponds to the mean number of micronuclei observed per 100 cells 24 hours after contacting the cell sample with the chemical agent at the concentration C(NMN(24 h, C)).
# [1] = tested on: Hah (hippocampus astrocyte cells); test: pH2AX foci 24 h after contacting, Hah hippocampus astrocyte cells
# Protocol: as §1, §2, §3, §4, §6
# (§8) In tables 3 and 4, “pH2AX” corresponds to the mean number of nuclear foci obtained with the marker pH2AX, 24 hours after contacting the cell sample with the chemical agent at the concentration C (NpH2AX(24 h, C)), and where “Micronuclei” corresponds to the mean number of micronuclei observed per 100 cells 24 hours after contacting the cell sample with the chemical agent at the concentration C(NMN(24 h, C)). […]
# [2] = tested on: Hah (hippocampus astrocyte cells); test: Micronuclei per 100 cells 24 h after contacting, Hah
# Protocol: as §1, §3, §5, §6, §7
# (§9) Table 4 presents a detection of number of pH2AX foci and number of micronuclei 24 hours after contacting control nervous system cell lines Ha (astrocyte cells), Hah (hippocampus astrocyte cells) and Hasp (spinal cord astrocyte cells) with a metallic compound (AlCl3, Cu, CuCl2, CuSO4, Pb(NO3)2, CdCl2, Cd-acetate or Cd-acetate-citrate) according to the concentration of said metallic compound used.
# HMEC cells [3] = test: Micronuclei per 100 cells 24 h after contacting, Table 4 lower part (HMEC); details: line cell blank (below Hasp)
# Protocol: as §1, §3, §5, §6, §7
# Ha (astrocyte cells) [4] = test: pH2AX foci 24 h after contacting, Ha astrocyte cells; details: for pH2AX: Ha, 24 hours after contacting
# Protocol: as §1, §2, §3, §4, §6, §8
# [5] = tested on: Hasp (spinal cord astrocyte cells); test: Micronuclei per 100 cells 24 h after contacting, Hasp
# Protocol: as §1, §3, §5, §6, §7, §9
# Ha (astrocyte cells) [6] = test: Micronuclei per 100 cells 24 h after contacting, Ha astrocyte cells
# Protocol: as §1, §3, §5, §6, §7, §9
# HMEC cells [7] = test: pH2AX foci 24 h after contacting, Table 4 lower part (HMEC endothelial cells); details: for pH2AX: line cell blank (below Hasp), 24 hours after contacting
# Protocol: as §1, §2, §3, §4, §6, §7
# [8] = tested on: Hasp (spinal cord astrocyte cells); test: pH2AX foci 24 h after contacting, Hasp spinal cord astrocyte cells
# Protocol: as §1, §2, §3, §4, §6, §8
compound,measurement,setting,value
CCNc1nc(Cl)nc(NC(C)C)n1 [Atrazine],pH2AX,1BR3 (control cells); 0.01 μM,1 foci
same,pH2AX,1BR3 (control cells); 0.1 μM,1.3 foci
same,pH2AX,1BR3 (control cells); 0.3 μM,1.8 foci
same,pH2AX,1BR3 (control cells); 10 μM,3.1 foci
same,pH2AX,1BR3 (control cells); 30 μM,3.5 foci
same,Micronuclei,1BR3 cells; 0.01 μM,5 per 100 cells
same,Micronuclei,1BR3 cells; 0.1 μM,6 per 100 cells
same,Micronuclei,1BR3 cells; 1 μM,13.5 per 100 cells
same,Micronuclei,1BR3 cells; 10 μM,15 per 100 cells
same,Micronuclei,1BR3 cells; 20 μM,40 per 100 cells
[Cl][Al]([Cl])[Cl] [AlCl3],pH2AX,[1]; 3 μM,0.07 foci
same,pH2AX,[1]; 10 μM,0.68 foci
same,pH2AX,[1]; 30 μM,0.83 foci
same,pH2AX,[1]; 100 μM,1.22 foci
same,pH2AX,[1]; 300 μM,1.77 foci
same,pH2AX,[1]; 1000 μM,2.28 foci
same,Micronuclei,[2]; 3 μM,2 per 100 cells
same,Micronuclei,[2]; 10 μM,2 per 100 cells
same,Micronuclei,[2]; 30 μM,4 per 100 cells
same,Micronuclei,[2]; 100 μM,6 per 100 cells
same,Micronuclei,[2]; 300 μM,20 per 100 cells
same,Micronuclei,[2]; 1000 μM,30 per 100 cells
same,Micronuclei,HMEC cells [3]; 3 μM,1.75 per 100 cells
same,Micronuclei,HMEC cells [3]; 10 μM,3.75 per 100 cells
same,Micronuclei,HMEC cells [3]; 30 μM,5 per 100 cells
same,Micronuclei,HMEC cells [3]; 100 μM,4.33 per 100 cells
same,Micronuclei,HMEC cells [3]; 300 μM,7.33 per 100 cells
same,Micronuclei,HMEC cells [3]; 1000 μM,11.5 per 100 cells
same,pH2AX,Ha (astrocyte cells) [4]; 3 μM,0.34 foci
same,pH2AX,Ha (astrocyte cells) [4]; 10 μM,0.88 foci
same,pH2AX,Ha (astrocyte cells) [4]; 30 μM,1.37 foci
same,pH2AX,Ha (astrocyte cells) [4]; 100 μM,2.18 foci
same,pH2AX,Ha (astrocyte cells) [4]; 300 μM,2.96 foci
same,pH2AX,Ha (astrocyte cells) [4]; 1000 μM,6.04 foci
same,H2AX foci,Ha (astrocyte cells) [4]; astrocytes (HA cells) contaminated with 100 μM,2 foci
same,Micronuclei,[5]; 3 μM,2 per 100 cells
same,Micronuclei,[5]; 10 μM,4 per 100 cells
same,Micronuclei,[5]; 30 μM,4 per 100 cells
same,Micronuclei,[5]; 100 μM,7.3 per 100 cells
same,Micronuclei,[5]; 300 μM,8.7 per 100 cells
same,Micronuclei,[5]; 1000 μM,13 per 100 cells
same,Micronuclei,Ha (astrocyte cells) [6]; 3 μM,10 per 100 cells
same,Micronuclei,Ha (astrocyte cells) [6]; 10 μM,15 per 100 cells
same,Micronuclei,Ha (astrocyte cells) [6]; 30 μM,16.7 per 100 cells
same,Micronuclei,Ha (astrocyte cells) [6]; 100 μM,46.7 per 100 cells
same,Micronuclei,Ha (astrocyte cells) [6]; 300 μM,56.7 per 100 cells
same,Micronuclei,Ha (astrocyte cells) [6]; 1000 μM,70 per 100 cells
same,H2AX foci,"HMEC cells [7]; endothelial cells (HMEC cells), 100 μM",3.7 foci
same,pH2AX,HMEC cells [7]; 3 μM,3.2 foci
same,pH2AX,HMEC cells [7]; 10 μM,3.2 foci
same,pH2AX,HMEC cells [7]; 30 μM,5.7 foci
same,pH2AX,HMEC cells [7]; 100 μM,3.7 foci
same,pH2AX,HMEC cells [7]; 300 μM,4.5 foci
same,pH2AX,HMEC cells [7]; 1000 μM,9.9 foci
same,pH2AX,[8]; 3 μM,0.84 foci
same,pH2AX,[8]; 10 μM,0.46 foci
same,pH2AX,[8]; 30 μM,0.74 foci
same,pH2AX,[8]; 100 μM,2.15 foci
same,pH2AX,[8]; 300 μM,1.7 foci
same,pH2AX,[8]; 1000 μM,1.62 foci
Oc1c(Cl)c(Cl)c(Cl)c(Cl)c1Cl [PCP],pH2AX,1BR3 (control cells); 0.3 μM,1.2 foci
same,pH2AX,1BR3 (control cells); 10 μM,1.5 foci
same,pH2AX,1BR3 (control cells); 30 μM,1.9 foci
same,pH2AX,1BR3 (control cells); 100 μM,4.3 foci
same,Micronuclei,1BR3 cells; 0.3 μM,2 per 100 cells
same,Micronuclei,1BR3 cells; 3 μM,4 per 100 cells
same,Micronuclei,1BR3 cells; 10 μM,10 per 100 cells
same,Micronuclei,1BR3 cells; 50 μM,10 per 100 cells
same,Micronuclei,1BR3 cells; 100 μM,20 per 100 cells
